Experimental data as given in US4496555A, “Compounds and compositions for inhibiting estrogen sulfotransferase transferase activity, process and novel intermediates therein” (Wayne State University, priority 1983, dated 1985).

Legend:
estrogen sulfurylation = settings: Rozhin et al, J. Biol Chem., 1977, 252, 7214; cited from earlier work
[1] = tested on: receptor binding and nuclear migration of physiological levels of 17β-estradiol; settings: Rozhin et al 1977; cited from earlier work
[2] = molecular target: T1, Bovine Adrenal Estrogen Sulfotransferase (Bos taurus, UniProt P19217); test: Purified bovine adrenal estrogen sulfotransferase inhibition; assay type: biochemical; settings: purified bovine adrenal enzyme; inhibitor concentration not given
T1 construct: from tissue; host or cells: bovine adrenal
T1 sequence (P19217 1-295): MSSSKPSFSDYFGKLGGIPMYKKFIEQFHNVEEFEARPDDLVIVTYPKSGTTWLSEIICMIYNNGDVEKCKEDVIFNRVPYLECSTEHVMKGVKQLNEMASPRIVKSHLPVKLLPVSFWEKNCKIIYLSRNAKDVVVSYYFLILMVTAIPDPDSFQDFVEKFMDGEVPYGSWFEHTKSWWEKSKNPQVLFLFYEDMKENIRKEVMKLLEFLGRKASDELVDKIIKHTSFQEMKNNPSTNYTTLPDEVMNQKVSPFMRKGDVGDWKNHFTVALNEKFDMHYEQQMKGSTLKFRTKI
Description: (§1) The estrogen sulfotransferase inhibiting activity of compounds within the scope of the invention are determined by inhibition of bovine adrenal or porcine uterine estrogen sulfotransferase. The desired concentration of estrogen sulfates is determined by comparisons after appropriate incubations with and without inhibitors and at various concentrations of inhibitors in the incubation. A detailed description of materials and methods for both bovine adrenal sulfotransferase inhibition and metabolism of estrogen in porcine uterus during implantation is described in U.S. Pat. No. 4,340,602 incorporated herein by reference above. Additionally, U.S. Pat. No. 4,340,602 describes materials and methods for determining estrogen sulfurylation in human endometrial curettings.
*Methods described in: Rozhin, J., et al. J. Biol. Chem. 252, 7214 (1977)

[3] = molecular target: T2, Porcine Uterine Estrogen Sulfotansferase (Sus scrofa, UniProt A0A286ZW98); test: Inhibition of porcine uterine estrogen sulfotransferase (estrogen sulfates formed); assay type: biochemical; settings: control 1.26 p mole
T2 sequence (A0A286ZW98 1-296): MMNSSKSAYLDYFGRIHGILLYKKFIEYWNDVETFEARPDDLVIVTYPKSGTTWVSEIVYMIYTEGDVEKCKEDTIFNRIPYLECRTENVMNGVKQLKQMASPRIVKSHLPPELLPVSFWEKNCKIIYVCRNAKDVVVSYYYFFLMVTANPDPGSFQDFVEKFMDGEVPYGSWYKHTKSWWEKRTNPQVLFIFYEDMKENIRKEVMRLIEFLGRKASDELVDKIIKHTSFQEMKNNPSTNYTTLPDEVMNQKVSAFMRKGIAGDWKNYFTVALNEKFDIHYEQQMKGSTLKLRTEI
Description: as §1

Row | SMILES | estrogen sulfurylation (estrogen sulfurylation) | interference with receptor binding and nuclear migration of 17β-estradiol [1] | % Inhibition [2] [%] | Estrogen Sulfates ([3]; 10-fold inhibitor) [p mole] | Estrogen Sulfates ([3]; 10^2-fold inhibitor) [p mole] | Estrogen Sulfates ([3]; 10^3 fold inhibitor) [p mole]
1 | COc1ccc2c(c1[N+](=O)[O-])CC[C@@H]1[C@@H]2CC[C@]2(C)C(=O)CC[C@@H]12 [4-nitroestrone 3-0-methylether] | blocks estrogen sulfurylation | without interfering with the receptor binding and nuclear migration |  |  |  | 
2 | C[C@]12CC[C@@H]3c4cccc(F)c4CC[C@H]3[C@@H]1CC[C@@H]2O [4-F-1,3,5(10)estratriene 17β-ol, 4-Fluoroestra-1,3,5-(10)-trien-17β-ol] |  |  | 81 | 1.07 | 1.08 | 0.67
